Data published in patent publication US20190112357A1, “PREVENTION OF PROTEIN DISULFIDE BOND REDUCTION” (MedImmune, LLC, priority 2016, published 2019).

How the values were obtained:
recombinant TrxR1/Trx1 = biological target: T1, recombinant TrxR1/Trx1 (Rattus norvegicus, UniProt O89049); test: DTNB reductase activity assay, recombinant TrxR1/Trx1; settings: ATG concentrations higher than 0.1 μM
T1 sequence (O89049 1-499): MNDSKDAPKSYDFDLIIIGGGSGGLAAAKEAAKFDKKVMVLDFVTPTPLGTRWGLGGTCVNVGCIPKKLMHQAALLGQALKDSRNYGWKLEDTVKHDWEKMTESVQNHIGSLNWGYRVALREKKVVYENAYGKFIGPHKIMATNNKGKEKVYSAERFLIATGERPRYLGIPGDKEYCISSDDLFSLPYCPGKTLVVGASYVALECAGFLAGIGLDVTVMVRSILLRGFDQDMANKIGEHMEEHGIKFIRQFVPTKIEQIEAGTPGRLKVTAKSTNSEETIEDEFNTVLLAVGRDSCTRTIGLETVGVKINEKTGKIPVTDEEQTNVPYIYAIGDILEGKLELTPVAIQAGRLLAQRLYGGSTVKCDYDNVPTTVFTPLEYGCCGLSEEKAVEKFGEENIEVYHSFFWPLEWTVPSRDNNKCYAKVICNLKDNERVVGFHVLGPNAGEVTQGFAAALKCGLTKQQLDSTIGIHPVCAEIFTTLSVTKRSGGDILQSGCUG
Method: This assay allows determination of the total reductase activity in a culture sample, as well as determination of the individual contribution made by thioredoxin reductase and glutathione reductase to the total reductase activity of the sample. In this assay, culture samples (cells+media) from 3 L bioreactors were stored frozen until the end of the run, after which the samples were centrifuged to remove the cell pellet then the resulting supernatant was diluted 20-fold into 100 mM tris buffer, pH 7.4, containing 0.4 mM NADPH, 0.15 mM oxidized glutathione, and 3 mM DTNB with the indicated concentration of specific reductase inhibitor. Addition of the enzyme specific inhibitors to the samples allowed the total reductase activity to be determined as well as the individual activity from the thioredoxin and glutathione systems. Reductase activity was monitored by spectroscopic measurement of the increase in absorbance at a wavelength of 412 nm. […] The detected increase in absorbance at this wavelength is caused by the reduction of DTNB (Arnér, ESJ, Biochim. Biophys. Acta—Gen. Subj., 1790:495-526, 2009).
Briefly, culture samples were thawed on ice. […] The absorbance at a wavelength of 412 nm was determined every 30 seconds, for 20 minutes.
Activity of the reductases was calculated as follows. The change in absorbance per minute (Δ412) for each well was determined. […]

thioredoxin system = test: Reductase activity assay, day 14 culture samples, thioredoxin system; assay type: biochemical, Chinese Hamster; settings: day 14, 0.5 μM ATG
Method: The total reductase activity was determined in the absence of any inhibitor. […] Thus, the difference in activity between a sample with ATG, and a sample without any inhibitor, indicates the amount of reductase activity contributed the thioredoxin system. […] Thus, the difference in reductase activity between a sample with 2-AAPA, and a sample without any inhibitor, indicates the amount of reductase activity contributed by the glutathione system. Although ATG and 2-AAPA are provided as exemplary specific inhibitors, other specific inhibitors discussed above can be employed in this assay instead of ATG and 2-AAPA.
(§1) Briefly, culture samples were thawed on ice. […] The samples were then allowed to incubate 5 minutes.
(§2) Activity of the reductases was calculated as follows. […] The activity was then calculated by the following equation: […]
The reductase activities of the thioredoxin and glutathione systems were evaluated in day 14 culture samples of the same CHO cell lines A, B, C, and D, using the previously evaluated specific inhibitors 2-AAPA and ATG at 100 μM and 0.5 μM respectively. Data in FIG. 6A were normalized to viable cell density. Cell lines A, B, and C were described in Example 6, above. Cell line D is the cell line CHO CAT-S, and is stably transfected to produce an IgG1 mAb (mAb D).

[1] = test system: TrxR1 purified from a day 14 culture of cell line B; test: DTNB reductase activity of 2'5'-ADP column fractions from cell line B, TrxR1; assay type: biochemical, Chinese Hamster; settings: 0.5 μM ATG, fractions B1-C2, depending on the fraction
Method: Reductases were purified from cell samples to verify the specificity of reductase inhibitors. A day 14 culture of mAb B (IgG antibody produced by CHO cell line B CHO-K1SV) was pelleted by centrifugation, washed once with PBS and re-suspended in 50 mM tris buffer, pH 7.5. The solution was homogenized and filtered at 0.2 μm prior to loading onto a column of 2′5′-ADP Sepharose 4B resin. The reductases were eluted using a linearly increasing gradient of 0 to 0.3 mM NADP^+ in the same tris buffer (Yadav, et al., Parasitol. Int., 62:193-198, 2013). The reductase activity of the collected fractions was determined using the assay described in Example 3. Additionally, western blot analysis was used to detect TrxR1 and GR in the collected fractions.
The reductase-specific inhibitors were evaluated above using purified recombinant mammalian enzymes from rat and human. […] The added activity from the two systems was approximately equal to the total activity detected in the absence of an inhibitor for each fraction. […] That is, if the reductase inhibitors were non-specifically inhibiting both enzymatic systems, the added reductase activity would have been […] than the reductase activity detected without any added inhibitor. […] The fractions with reductase activity were pooled and further evaluated at the inhibitor concentrations assayed in the antibody reduction assay.

GR/GSSG = biological target: T2, GR/GSSG (Homo sapiens, UniProt P00390); test: DTNB reductase activity assay, recombinant GR/GSSG; assay type: biochemical; settings: ATG concentrations lower than 5 μM
T2 construct: purchased Abcam
T2 sequence (P00390 44-522): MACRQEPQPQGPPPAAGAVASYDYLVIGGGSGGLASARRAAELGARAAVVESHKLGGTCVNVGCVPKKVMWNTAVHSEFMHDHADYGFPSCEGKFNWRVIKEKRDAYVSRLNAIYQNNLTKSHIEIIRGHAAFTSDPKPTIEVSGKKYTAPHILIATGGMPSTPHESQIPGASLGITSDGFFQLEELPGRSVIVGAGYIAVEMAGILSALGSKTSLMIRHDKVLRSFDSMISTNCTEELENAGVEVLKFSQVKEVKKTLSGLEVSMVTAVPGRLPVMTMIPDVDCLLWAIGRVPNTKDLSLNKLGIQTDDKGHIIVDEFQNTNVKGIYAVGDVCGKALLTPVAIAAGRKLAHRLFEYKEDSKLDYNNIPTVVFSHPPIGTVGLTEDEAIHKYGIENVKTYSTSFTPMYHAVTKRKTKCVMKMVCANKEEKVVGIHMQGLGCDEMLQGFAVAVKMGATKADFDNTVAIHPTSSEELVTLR
Method: as §1, §2

[2] = test system: TrxR1 purified from CHO cell cultures; test: mAb B reduction by pooled CHO fractions with NADPH and Trx1; assay type: biochemical, Chinese Hamster; settings: 3 μM Cu^2+ or 100 μM ATG, overnight room temperature
Method: Purified mAb B was spiked into several solutions containing different combinations of the pooled fractions (PF), recombinant Trx1, GSSG, NADPH, ATG, and Cu^2+. The solutions were incubated at room temperature overnight and the amount of intact antibody remaining was determined by capillary electrophoresis according to the protocol described above. In the first set of samples, purified mAb B was spiked into the pooled fractions with, and without, NADPH.
The third set of solutions contained the pooled enzymes, NADPH, Trx1, and either no inhibitor, 3 μM Cu^2+, or 100 μM ATG. […] In the final sample as a control, mAb B was spiked into a solution containing NADPH, Trx1, and GSSG.

With `OC[C@H]1O[C@H]([S-])[C@H](O)[C@@H](O)[C@@H]1O.[Au+]` [ATG, aurothioglucose] the TrxR1/Trx1 reductase activity (recombinant TrxR1/Trx1) was “negligible”, the “share of total reductase activity from the thioredoxin system” value (“share of total reductase activity” below) (thioredoxin system; cell line A) was 35% and the “share of total reductase activity” value (thioredoxin system; cell line B) was 60%. For the same compound, the “share of total reductase activity” value (thioredoxin system; cell line C) was 87%, the “share of total reductase activity” value (thioredoxin system; cell line D) was 60% and the “share of reductase activity from TrxR1, determined with the inhibitor” value [1] was 60-75%. For the same compound, the “reductase activity of solutions containing GR/GSSG” value (GR/GSSG) was “unaffected” and the “antibody reduction in pooled enzymes, NADPH, Trx1” value [2] was “completely prevented reduction”.
